Counter-ions that a name gives are not always drawn. Like-named read-outs stand apart in the source and are kept apart here.
What was measured:
[1] = PAMPA (parallel artificial membrane permeability assay); type: in vitro ADME; conditions: for Papp: PAMPA
human enteropeptidase = target: T1, human enteropeptidase (Homo sapiens, UniProt P98073); test: Human enteropeptidase enzyme assay; type: biochemical
T1 construct: purchased ITSI-Biosciences, LLC #REN-260
Protocol: Human recombinant enteropeptidase (#REN-260, ITSI-Biosciences, LLC) was diluted with an assay buffer (50 mM tricine (pH 8.0), 0.01(w/v)% Tween 20, 10 mM CaCl2) to prepare a 24 mU/mL enzyme solution. Subsequently, 5FAM–Abu–[…]CPQ2)–Lys–Lys–NH2 (purity: 97.2%, CPC Scientific, Inc.) was diluted with an assay buffer to prepare a 2.1 μM substrate solution. Compounds were dissolved in DMSO and then diluted in the assay buffer. The compound solution (5 μL/well) and the substrate solution (5 μL/well) were added to a 384-well black plate (#784076, Greiner Bio-One) and mixed. Then, the enzyme solution (5 μL/well) was added to the plate and mixed to start the reaction. The fluorescence intensity was measured at an excitation wavelength of 485 nm and a fluorescence wavelength of 535 nm using a fluorescence plate reader EnVision (PerkinElmer Inc.). Also, the same reaction as above was performed except that the test compound was not added (test compound non-supplemented group). In addition, the same reaction as above was performed except that neither the test compound nor the enzyme was added (control group).
Inhibition rate (%) = (1 – (fluorescence intensity of the test compound supplemented group – fluorescence intensity of the control group)/(fluorescence intensity of the test compound non-supplemented group – fluorescence intensity of the control group)) × 100.

[2] = Kinetic aqueous solubility at pH 1.2/6.8; type: physicochemical; conditions: aqueous medium, kinetic from dmso stock
High-Fat-Diet-Fed Mice = test: Increase in fecal protein output in high-fat-diet-fed mice; type: in vivo, mouse; conditions: 10 mg/kg, oral
Protocol: A high-fat diet (HFD)-fed mouse (D12079B diet, male, 14–21 weeks old) was used for the in vivo assay. For compound screening, mice were orally administered with either the test compound (10 mg/kg) or 0.5% methylcellulose (MC) as a vehicle control. For the assessment of efficacy by systemic exposure of the compound, mice were subcutaneously administered with compound 2a (10 mg/kg) or saline as a vehicle control and compared with those administered oral treatment (60 mg/kg). Doses were selected to achieve equivalent systemic exposure as the area under the curve over 24 h based on pharmacokinetic data of both oral and subcutaneous administration. Whole feces were collected overnight, and the fecal protein output was evaluated as described previously.[33]

[3] = Aqueous stability at pH 1.2/6.8; type: physicochemical; conditions: 24 h; for stability at pH 1.2 (% decomposed): pH 1.2, 37 °C; for stability at pH 6.8 (% decomposed): pH 6.8, 37 °C
Protocol: Sample solutions in pH 1.2/6.8 media (first/second fluids for the disintegration test in the Japanese Pharmacopoeia 17th edition, including 10% dimethyl sulfoxide if needed, 10 μg/mL) were prepared for the compounds and incubated at 37 °C. The sample solutions were measured initially and at 24 h using HPLC, and peak analysis was conducted. Residual contents (%) of the compounds in pH 1.2/6.8 media at 37 °C after 24 h of incubation of the initial solutions were calculated using the peak areas.

[4] = 6 min, supplement csv, unit inferred, read-out: human enteropeptidase IC50 (6 min)
[5] = 120 min, supplement csv, unit inferred, read-out: human enteropeptidase IC50 (120 min)
[6] = 6 min incubation of enzyme, substrate and compound at room temperature, 95% confidence intervals in parentheses, read-out: Human enteropeptidase IC50(initial)
[7] = 120 min incubation of enzyme, substrate and compound at room temperature, 95% confidence intervals in parentheses, read-out: Human enteropeptidase IC50(app)
[8] = pH 1.2, simulated gastric fluid, read-out: Kinetic aqueous solubility at pH 1.2
[9] = pH 6.8, aqueous buffer, read-out: Kinetic aqueous solubility at pH 6.8

T1 sequence (P98073 whole entry): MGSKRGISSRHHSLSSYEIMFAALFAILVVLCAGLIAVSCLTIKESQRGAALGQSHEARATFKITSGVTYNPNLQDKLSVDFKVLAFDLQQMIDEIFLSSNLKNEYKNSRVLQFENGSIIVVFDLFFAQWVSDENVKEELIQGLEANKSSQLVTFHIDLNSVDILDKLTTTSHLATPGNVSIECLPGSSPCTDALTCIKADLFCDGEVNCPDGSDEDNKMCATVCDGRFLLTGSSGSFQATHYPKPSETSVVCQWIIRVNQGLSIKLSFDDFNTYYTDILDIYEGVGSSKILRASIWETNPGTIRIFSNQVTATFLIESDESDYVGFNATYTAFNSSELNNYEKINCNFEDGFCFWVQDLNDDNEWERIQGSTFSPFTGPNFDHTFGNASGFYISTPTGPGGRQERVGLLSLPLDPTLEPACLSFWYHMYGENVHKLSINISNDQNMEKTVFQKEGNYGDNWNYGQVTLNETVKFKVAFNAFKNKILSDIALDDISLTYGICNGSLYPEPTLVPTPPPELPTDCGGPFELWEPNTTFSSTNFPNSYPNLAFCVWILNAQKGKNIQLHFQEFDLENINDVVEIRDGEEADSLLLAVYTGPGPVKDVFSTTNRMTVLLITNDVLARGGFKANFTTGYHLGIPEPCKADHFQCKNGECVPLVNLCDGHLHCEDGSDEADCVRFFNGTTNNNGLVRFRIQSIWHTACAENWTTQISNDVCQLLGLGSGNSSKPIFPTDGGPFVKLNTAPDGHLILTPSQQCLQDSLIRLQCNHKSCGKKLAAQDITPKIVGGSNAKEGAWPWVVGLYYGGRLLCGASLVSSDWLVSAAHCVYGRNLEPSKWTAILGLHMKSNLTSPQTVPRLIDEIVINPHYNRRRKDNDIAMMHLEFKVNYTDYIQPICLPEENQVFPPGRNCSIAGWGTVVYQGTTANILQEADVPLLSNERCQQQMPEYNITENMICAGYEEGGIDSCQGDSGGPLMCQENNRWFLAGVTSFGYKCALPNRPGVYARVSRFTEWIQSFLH

IC50 (human enteropeptidase; [6]) [µM] | IC50 (human enteropeptidase; [7]) [µM] | Structure (SMILES) | fecal protein output (fold of 2a) (High-Fat-Diet-Fed Mice) | further results
 |  | Cc1cc(OC(=O)c2ccc(NC(=N)N)cc2)no1.Cl [1a] |  | Papp ([1]; pH 7.4, read-out: PAMPA at pH 7.4): 3 nm/s; Papp ([1]; pH 5.0, read-out: PAMPA at pH 5.0): 5 nm/s; IC50 (human enteropeptidase; [4]): 1.5 µM
 |  | CS(=O)(=O)O.N=C(N)Nc1ccc(C(=O)Oc2ccccc2)cc1 [1b] |  | PAMPA at pH 5.0 ([1]; pH 5.0): <2 nm/sec; PAMPA at pH 7.4 ([1]; pH 7.4): <2 nm/sec; IC50 (human enteropeptidase; [4]): 5.6 µM; IC50 (human enteropeptidase; [5]): 0.4 µM
 |  | N=C(N)Nc1ccc(C(=O)Oc2ccc(CC(=O)NCC(=O)O)cc2)cc1.O=C(O)C(F)(F)F [1c, N-({4-[(4-Carbamimidamidobenzoyl)oxy]phenyl}acetyl)glycine Trifluoroacetic Acid Salt] |  | PAMPA at pH 5.0 ([1]; pH 5.0): 2 nm/sec; PAMPA at pH 7.4 ([1]; pH 7.4): 2 nm/sec; IC50 (human enteropeptidase; [4]): 0.54 µM; IC50 (human enteropeptidase; [5]): 0.03 µM
0.31 | 0.023 | N=C(N)Nc1ccc(C(=O)Oc2ccc(CC(=O)N[C@@H](CC(N)=O)C(=O)O)cc2)cc1 [2b, N^2-({4-[(4-Carbamimidamidobenzoyl)oxy]phenyl}acetyl)-L-asparagine Trifluoroacetic Acid Salt] |  | 
0.12 | 0.0079 | N=C(N)Nc1ccc(C(=O)Oc2ccc(CC(=O)N[C@@H](CCC(=O)O)C(=O)O)cc2)cc1 [2c, N-({4-[(4-Carbamimidamidobenzoyl)oxy]phenyl}acetyl)-L-glutamic Acid Hydrochloride] |  | 
> 3.3 | 0.68 | Cc1cc(C(=O)Oc2ccc(CC(=O)N[C@@H](CC(=O)O)C(=O)O)cc2)ccc1NC(=N)N [3a, N-({4-[(4-Carbamimidamido-3-methylbenzoyl)oxy]phenyl}acetyl)-L-aspartic Acid] |  | fold decrease in IC50(initial) relative to 2a (human enteropeptidase; 6 min, methyl group at the 3-position): more than 30 fold
0.032 | 0.0016 | N=C(N)Nc1ccc(C(=O)Oc2cccc(CC(=O)N[C@@H](CC(=O)O)C(=O)O)c2)cc1.O=C(O)C(F)(F)F [4a, N-({3-[(4-Carbamimidamidobenzoyl)oxy]phenyl}acetyl)-L-aspartic Acid Trifluoroacetic Acid Salt] | 0.97 fold of 2a | solubility kinetic [2, 8]: > 0.086 mg/mL; solubility kinetic [2, 9]: > 0.092 mg/mL; stability at pH 1.2 (% decomposed) [3]: 2.8 % decomposed; stability at pH 6.8 (% decomposed) [3]: 5.8 % decomposed
0.013 | 0.00082 | N=C(N)Nc1ccc(C(=O)Oc2cccc(C(=O)N[C@@H](CC(=O)O)C(=O)O)c2)cc1.O=C(O)C(F)(F)F [4b, N-{3-[(4-Carbamimidamidobenzoyl)oxy]benzoyl}-L-aspartic Acid Trifluoroacetic Acid Salt] | 0.82 fold of 2a | solubility kinetic [2, 8]: > 0.091 mg/mL; solubility kinetic [2, 9]: > 0.089 mg/mL; stability at pH 1.2 (% decomposed) [3]: 3.9 % decomposed; stability at pH 6.8 (% decomposed) [3]: 8.6 % decomposed
0.065 | 0.0032 | N=C(N)Nc1ccc(C(=O)Oc2ccc(C(=O)N[C@@H](CC(=O)O)C(=O)O)cc2)cc1.O=C(O)C(F)(F)F [4c, N-{4-[(4-Carbamimidamidobenzoyl)oxy]benzoyl}-L-aspartic Acid Trifluoroacetic Acid Salt] | 0.88 fold of 2a | solubility kinetic [2, 8]: 0.069 mg/mL; solubility kinetic [2, 9]: > 0.088 mg/mL
0.18 | 0.014 | N=C(N)Nc1ccc(C(=O)Oc2ccc3c(c2)OC(CC(=O)N[C@@H](CC(=O)O)C(=O)O)C3)cc1 (stereo partly drawn) [5a, N-({6-[(4-Carbamimidamidobenzoyl)oxy]-2,3-dihydro-1-benzofuran-2-yl}acetyl)-L-aspartic Acid] |  | 
0.026 | 0.0018 | N=C(N)Nc1ccc(C(=O)Oc2cccc(C3=NO[C@@](CC(=O)O)(C(=O)O)C3)c2)cc1 [6c, (5S)-3-{3-[(4-Carbamimidamidobenzoyl)oxy]phenyl}-5-(carboxymethyl)-4,5-dihydro-1,2-oxazole-5-carboxylic Acid] | 1.23 fold of 2a | 
0.084 | 0.0077 | N=C(N)Nc1ccc(C(=O)Oc2ccc3c(c2)OC[C@@H]3CC(=O)N[C@@H](CC(=O)O)C(=O)O)cc1 [(R)-5b, N-({(3R)-6-[(4-Carbamimidamidobenzoyl)oxy]-2,3-dihydro-1-benzofuran-3-yl}acetyl)-L-aspartic Acid] | 1.26 fold of 2a | 

From publication PMC9234964, “Design, Synthesis, and Biological Evaluation of a Novel Series of 4-Guanidinobenzoate Derivatives as Enteropeptidase Inhibitors with Low Systemic Exposure for the Treatment of Obesity” (Journal of Medicinal Chemistry, 2022)
